Data on eleven compounds can be found in US4003945A, “Novel cyclopropanecarboxylates” (Sumitomo Chemical Company, Limited, priority 1973, dated 1977).

Series [1] concerns adults of houseflies. The experiment in a line: Oil preparation sprayed on Campbell's turn table (Example XX). The series is classed as in vivo, housefly. The note with it: Musca domestica, 24 h; Table 6; 1% oil preparation 5 ml, 10 minutes exposure, next day. Here is the method: The oil preparation obtained as in Example B (5 ml) was sprayed by the use of a Campbell's turn table [Soap & Sanitary Chemicals, Vol. 14, No. 6, 119 (1938) ] on 100 adults of houseflies were exposed to the spray for 10 minutes. The houseflies were then allowed to stand with feeding. On the next day, dead and alive were observed.

The subject of series [2] is leafhoppers of resistant and susceptible strains. Kind of series: Emulsion sprayed on rice seedlings, leafhoppers released (Example XVI). The series is classed as in vivo, leafhopper. The note with it: emulsion diluted to 50 times. Here is the method:
About 20 rice seedlings, cultivated for 20 days after sowing in a flower pot of 8.5 cm in diameter were sprayed with each of the present compounds (31, 32, 35, 39, 40, 42, 45, 48, 55, 59, 60, 63, 131 - 134, 139) in the form of an emulsion which were diluted to 50 times. Each pot was put into the beaker and covered with gauze, into which leafhoppers of resistant and susceptible strains, respectively, were released in each beaker. And the number of knocked down insects after 1 hour and the mortality after 24 hours were counted. As a result, the knock down per centage was more than 50% and the mortality was more than 80% in each case.

In series [3] the test system is tobacco cut worm. Kind of series: Dust on Chinese cabbages in the field (Example XVIII). In kind it is in vivo. Particulars: 5% dust, 3kg/10 ares, for 2 months. The text has this:
Each 5% dust of the present compounds 31, 32, 62, 63 was spread in a ratio of 3kg/10 ares on the Chinese cabbages of 40 days after sowing in the field. And about 9,000 eggs of tobacco cut worm were put on the leaves of the Chinese cabbages per 10 ares every 5 days for a month.

Series [4] concerns Full grown larvae of the Northern house mosquito. Kind of series: Larvicidal test in beaker with diluted emulsifiable concentrate (Example XIX). Particulars: Table 5; after 24 hours. In kind it is in vivo. Here is the method:
30 Full grown larvae of the Northern house mosquito were released into the beaker with 200 ml of dilution of each emulsifiable concentrates which obtained in Example X.

For series [5], the system named is adult planthoppers. The experiment in a line: Residual effect on sprayed rice seedlings (Example XV). In kind it is in vivo. Particulars: concentrate diluted to 400 times; observed 24 hours after release. Here is the method:
About 20 rice seedlings, cultivated for 20 days after sowing in a flower pot of 8.5 cm in diameter, were sprayed with each of the emulsifiable concentrates obtained as in Example X which were diluted to 400 times with water. After air-drying, each pot was covered with a wire cage, into which 20 adult planthoppers were released as time elapsed. And the observation was made after 24 hours.

A short description of series [6]: Oral acute toxicity in male mice (Example XXI). Particulars: mouse, in vivo, Table 7, male mice of about 20 g. The text has this: An emulsion prepared by diluting with water the present compounds 31, 32, 33, 34, 35, 46, 63, in the form of an emulsifiable concentrate was orally administrated to male mice of about 20 g in body weight.

Consider `C#CC(OC(=O)C1C(C=C(C)C)C1(C)C)C(C)=Cc1ccccc1` (stereo not drawn) [Compound 32, α-Ethynyl-β-methylcinnamyl chrysanthemate], for which, in series [1], the mortality – broadly, the percentage killed – at 1 % was found to be 96%. In series [2], the “knock down percentage after 1 hour” value is on record as “more than 50%” and the “mortality after 24 hours” value is recorded as “more than 80%”. Moreover, the “damage of the Chinese cabbages by tobacco cut worms” value (from here on “damage of the Chinese cabbages”) in series [3] is recorded as “the damage of the Chinese cabbages by tobacco cut worms was not found”. Besides, the LC50 (commonly the concentration lethal to half of the exposed cells or organisms) in series [4] worked out at 0.069 ppm. Besides, in series [5], the “Mortality (%) After 1 day” value came out at 100% and the “Mortality (%) After 6 days” value was 100%. Besides, in series [6], the LD50 (usually the dose expected to kill half of the subjects tested) at 48 h is > 500 mg/kg.
Take `C#CC(OC(=O)C1C(C=C(C)C)C1(C)C)C(C)=Cc1ccc(C(C)C)cc1` (stereo not drawn) [Compound 46, α-Ethynyl-β-methyl-4-iso-propylcinnamyl chrysanthemate]: the LD50 at 48 h in series [6] is > 600 mg/kg.
In turn, `C#CC(OC(=O)C1C(C=C(C)C)C1(C)C)C(C)=Cc1ccc(C)cc1` (stereo not drawn) [Compound 33, α-Ethynyl-β-methyl-4-methylcinnamyl chrysanthemate] yielded an LC50 in series [4] of 0.34 ppm. For the same compound, the LD50 at 48 h in series [6] is > 600 mg/kg.
In the case of `C#CC(OC(=O)C1C(C=C(C)C)C1(C)C)C(C)=Cc1ccc2c(c1)OCO2` (stereo not drawn) [Compound 35, α-Ethynyl-β-methyl-3,4-methylenedioxycinnamyl chrysanthemate], in series [2], the “knock down percentage after 1 hour” value is recorded as “more than 50%” and the “mortality after 24 hours” value is on record as “more than 80%”. The LD50 at 48 h in series [6] is > 600 mg/kg.
As for `C#CC(OC(=O)C1C(C=C(C)C)C1(C)C)C(=Cc1ccccc1)CC` (stereo not drawn) [Compound 63, α-Ethynyl-β-ethylcinnamyl chrysanthemate], the mortality at 1 % in series [1] came out at 95%. Besides, in series [2], the “knock down percentage after 1 hour” value is “more than 50%” and the “mortality after 24 hours” value was “more than 80%”. Also, the “damage of the Chinese cabbages” value in series [3] is given as “the damage of the Chinese cabbages by tobacco cut worms was not found”. This compound had an LC50 in series [4] of 0.14 ppm. Further, in series [5], the “Mortality (%) After 1 day” value was found to be 100% and the “Mortality (%) After 6 days” value is reported as 53.3%. The LD50 at 48 h in series [6] was > 600 mg/kg.
In turn, `C#CC(OC(=O)C1C(C=C(Cl)Cl)C1(C)C)C(C)=Cc1c(C)cc(OC)cc1C` (stereo not drawn) [Compound 136, α-Ethynyl-β-methyl-2,6- -dimethyl-4-methoxy cinnamyl 2',2'-dimethyl-3'2"-2"- dichlorovinyl)-cyclopropane-carboxylate] gave a mortality at 1 % in series [1] of 90%.
On the same count and under the same terms, the figure for `C#CC(OC(=O)C1C(C=C(Cl)Cl)C1(C)C)C(C)=Cc1ccc(C#N)cc1` (centres unmarked) [Compound 137] is 100%; for `C#CC(C=C(c1ccccc1)c1ccccc1)OC(=O)C1C(C=C(Cl)Cl)C1(C)C` (centres unmarked) [Compound 138] it is 100%.
In the case of `C#CC(C=CCc1ccccc1)OC(=O)C1C(C=C(C)C)C1(C)C` (stereo not drawn) [Compound 62, α-Ethynyl-γ-benzylallyl chrysanthemate], in series [1], the mortality at 1 % was found to be 93%. The “damage of the Chinese cabbages” value in series [3] is “the damage of the Chinese cabbages by tobacco cut worms was not found”. In series [4], the LC50 is listed as 0.034 ppm. In addition, in series [5], the “Mortality (%) After 1 day” value was found to be 100% and the “Mortality (%) After 6 days” value amounted to 100%.
With `C#CC(OC(=O)C1C(C=C(C)C)C1(C)C)C(C)=Cc1ccccc1Cl` (stereo not drawn) [Compound 34, α-Ethynyl-β-methyl-2-chlorocinnamyl chrysanthemate], in series [4], the LC50 is 0.14 ppm. Also, in series [6], the LD50 at 48 h was > 600 mg/kg.
Regarding `C#CC(OC(=O)C1C(C=C(Cl)Cl)C1(C)C)C(C)=Cc1ccc2c(c1)OCO2` (stereo not drawn) [Compound 139, α-Ethynyl-β-methyl-3,4-methylenedioxy-cinnamyl 2',2'-dimethyl-3'-(2",2"-dichlorovinyl)-cyclopropanecarboxylate], the mortality at 1 % in series [1] is 95%. Besides, in series [2], the “knock down percentage after 1 hour” value is “more than 50%” and the “mortality after 24 hours” value was “more than 80%”.
